pKi: −log10 of the molar value.

The target of the test is T1, Vesicular acetylcholine transporter (Homo sapiens, UniProt Q16572).
T1 sequence (Q16572 whole entry): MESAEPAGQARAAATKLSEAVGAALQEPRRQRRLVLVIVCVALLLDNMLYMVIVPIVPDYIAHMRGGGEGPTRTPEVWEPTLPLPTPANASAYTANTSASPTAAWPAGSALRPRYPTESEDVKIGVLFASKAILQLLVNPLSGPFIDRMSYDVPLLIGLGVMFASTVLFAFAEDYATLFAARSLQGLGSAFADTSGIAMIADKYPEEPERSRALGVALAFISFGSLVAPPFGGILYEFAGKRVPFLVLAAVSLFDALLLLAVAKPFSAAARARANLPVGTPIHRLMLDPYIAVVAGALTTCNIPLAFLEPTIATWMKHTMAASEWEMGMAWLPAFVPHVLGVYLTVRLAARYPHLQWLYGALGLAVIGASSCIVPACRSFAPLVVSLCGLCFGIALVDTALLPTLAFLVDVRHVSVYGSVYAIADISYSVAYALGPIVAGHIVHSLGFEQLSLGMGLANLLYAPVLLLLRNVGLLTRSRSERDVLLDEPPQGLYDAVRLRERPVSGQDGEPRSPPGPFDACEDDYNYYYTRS
As to the kind of experiment: Displacement of [3H]-vesamicol from human VAChT after 24 hrs by liquid scintillation spectrometry analysis. For orientation: Loss of bound radioactivity is the signal in a displacement assay; it reports binding, not function.
Turning to `O=C(c1ccc(F)cc1)C1CCN([C@@H]2Cc3c(cccc3OCCF)C[C@H]2O)CC1`, the pKi (in general, the negative decadic logarithm of the Ki, by convention in mol/L) is 8.80. With `O=C(c1ccc(F)cc1)C1CCN(C2Cc3c(cccc3OCCF)CC2O)CC1` (stereo not drawn) the figure was 7.89; with `O=C(c1ccc(F)cc1)C1CCN([C@@H]2Cc3cccc(OCCF)c3C[C@H]2O)CC1`, 7.03.

For the origin of these results see BindingDB's records for doi:10.1016/j.bmc.2015.05.058 (Washington University, 2015).
